Measured values as given in patent publication US12256739B2, “Herbicidal mixtures comprising L-glufosinate or its salt and at least one protoporphyrinogen-IX oxidase inhibitor” (BASF SE, priority 2017, dated 2025).

How the values were obtained:
Test in all cases: Post emergence treatment, pot test, herbicidal activity
Format in all cases: in vivo
CYPIR (Cyperus iria) = settings: scale from 0 to 100
Source text: (§1) Synergism can be described as an interaction where the combined effect of two or more compounds is greater than the sum of the individual effects of each of the compounds. The pres-ence of a synergistic effect in terms of percent control, between two mixing partners (X and Y) can be calculated using the Colby equation (Colby, S. R., 1967, Calculating Synergistic and Antagonistic Responses in Herbicide Combinations, Weeds, 15, 21-22):
(§2) When the observed combined control effect is greater than the expected (calculated) combined control effect (E), then the combined effect is synergistic.
(§3) However, the weed control afforded by the compounds, mixtures or compositions is not limited to these species. The analysis of synergism or antagonism between the mixtures or compositions was determined using Colby's equation.
(§4) The culture containers used were plastic flowerpots containing loamy sand with approximately 3.0% of humus as the substrate. The seeds of the test plants were sown separately for each species and/or resistant biotype. For the pre-emergence treatment, the active ingredients, which had been suspended or emulsified in water, were applied directly after sowing by means of finely distributing nozzles. The containers were irrigated gently to promote germination and growth and subsequently covered with transparent plastic hoods until the plants had rooted. This cover caused uniform germination of the test plants, unless this had been impaired by the active ingredients. For the post-emergence treatment, the test plants were first grown to a height of 3 to 15 cm, depending on the plant habit, and only then treated with the active ingredients which had been suspended or emulsified in water. For this purpose, the test plants were either sown directly and grown in the same containers, or they were first grown separately as seedlings and transplanted into the test containers a few days prior to treatment. Depending on the species, the plants were kept at 10-25° C. or 20-35° C., respectively. The test period extended to 20 days after treatment. During this time, the plants were tended, and their response to the individual treatments was evaluated. The evaluation was carried out by using a scale from 0 to 100. 100 means no emergence of the plants or complete destruction of at least the above-ground parts, and 0 means no damage, or normal course of growth. Data shown are the mean of two replications.
(§5) • L-Glufosinate: 5% EC formulation • Saflufenacil: 342 g/l SC formulation • Compound II-16: 5% EC formulation (Compound II-16: ethyl[3-[2-chloro-4-fluoro-5-(1-methyl-6-trifluoromethyl-2,4-dioxo-1,2,3,4-tetrahydropyrimidin-3-yl)phenoxy]-2-pyridyloxy]acetate) • Trifludimoxazin: 500 g/l SC formulation • Sulfentrazone: 480 g/l SC formulation

[1] = tested on: ECHCG (Echinochloa crus-galli)
Source text: as §1, §2, §3, §4, §5

[2] = tested on: ERICA (Erigeron Canadensis, Conyza canadensis); settings: scale from 0 to 100
Source text: as §1, §2, §3, §4, §5

For `CCOC(=O)COc1ncccc1Oc1cc(-n2c(=O)cc(C(F)(F)F)n(C)c2=O)c(F)cc1Cl` [Compound II-16, ethyl[3-[2-chloro-4-fluoro-5-(1-methyl-6-trifluoromethyl-2,4-dioxo-1,2,3,4-tetrahydropyrimidin-3-yl)phenoxy]-2-pyridyloxy]acetate], the “Herbicidal activity against CYPIR, Found” value (CYPIR (Cyperus iria); Compound II-16 alone, 0.25 g ai/ha) was 0.

In the case of `CP(=O)(O)CC[C@H](N)C(=O)O` [L-Glufosinate, (2S)-2-amino-4-[hydroxy(methyl)phosphinoyl]butyric acid], the “Herbicidal activity against ECHCG, Found” value ([1]; L-Glufosinate alone, 200 g ai/ha, scale from 0 to 100) is reported as 0, the “Herbicidal activity against ECHCG, Found” value ([1]; L-Glufosinate alone, 400 g ai/ha, scale from 0 to 100, mean of two replications) is reported as 65 and the “Herbicidal activity against CYPIR, Found” value (CYPIR (Cyperus iria); L-Glufosinate alone, 200 g ai/ha) is reported as 0. For the same molecule, the “Herbicidal activity against ERICA, Found” value ([2]; L-Glufosinate alone, 75 g ai/ha) was 90.

With `CC(C)N(C)S(=O)(=O)NC(=O)c1cc(-n2c(=O)cc(C(F)(F)F)n(C)c2=O)c(F)cc1Cl` [Saflufenacil, saflufenacil] the “Herbicidal activity against ECHCG, Found” value ([1]; Saflufenacil alone, 0.5 g ai/ha, scale from 0 to 100) was 0.

With `Cc1nn(-c2cc(NS(C)(=O)=O)c(Cl)cc2Cl)c(=O)n1C(F)F` [Sulfentrazone, sulfentrazone] the “Herbicidal activity against ERICA, Found” value ([2]; Sulfentrazone alone, 1.25 g ai/ha) was 0 and the “Herbicidal activity against ERICA, Found” value ([2]; Sulfentrazone alone, 2.5 g ai/ha) was 0.

`C#CCN1C(=O)C(F)(F)Oc2cc(F)c(-n3c(=O)n(C)c(=S)n(C)c3=O)cc21` [Trifludimoxazin, trifludimoxazin] was tested, and the “Herbicidal activity against ECHCG, Found” value ([1]; Trifludimoxazin alone, 0.25 g ai/ha, scale from 0 to 100) was 10.
